Columns and labels:
Assay type in all cases: ADME, organism-based
[1] = Elimination half life at beta phase in HIV-seronegative human at 600 mg, po by two compartment model; conditions: in vivo
[2] = Total clearance in HIV-seronegative human at 600 mg, po by two compartment model; conditions: in vivo
[3] = Central volume of distribution in HIV-seronegative human at 600 mg, po by two compartment model; conditions: in vivo, read-out: Vc/F
[4] = Distribution half life at alpha phase in HIV-seronegative human at 600 mg, po by two compartment model; conditions: in vivo

half-life [1]: 15.8 h
CL/F [2]: 19.4 mL/min/kg
Vd/F [3]: 1.21 L/kg
half-life [4]: 0.547 h
Structure (SMILES): CC(C)CN(C[C@@H](O)[C@H](Cc1ccccc1)NC(=O)O[C@H]1CCOC1)S(=O)(=O)c1ccc(N)cc1 [AMPRENAVIR]
